From paper PMC7497641, “Neurotropic activity and safety of methylene-cycloalkylacetate (MCA) derivative 3-(3-allyl-2-methylenecyclohexyl) propanoic acid” (ACS Chemical Neuroscience, 2020)

How the values were obtained:
[1] = molecular target: T1, Adrenergic Receptor α2A (ADRA2A) (Homo sapiens, UniProt P08913); experiment: SAFETYscan GPCR cAMP; assay type: cell-based
T1 construct: host or cells: cAMP Hunter cell lines

[2] = molecular target: T2, Dopamine transporter (DAT) (Homo sapiens, UniProt Q01959); experiment: SAFETYscan Transporter assay; assay type: cell-based
T2 construct: host or cells: unnamed DiscoverX cell line

[3] = molecular target: T3, Norepinephrine transporter (NET) (Homo sapiens, UniProt P23975); experiment: SAFETYscan Transporter assay; assay type: cell-based
T3 construct: host or cells: unnamed DiscoverX cell line

[4] = molecular target: T4, Serotonin transporter (SERT) (Homo sapiens, UniProt P31645); experiment: cell-based; conditions: Blocker
T4 construct: host or cells: unnamed DiscoverX cell line

[5] = Single-dose acute tolerance, intravenous; assay type: in vivo, Male C57BL/6 mice; conditions: 250 mg/kg intravenously
Description: This pilot study was conducted according to guidance for industry single dose acute toxicity testing for pharmaceuticals (https://www.fda.gov/regulatory-information/search-fda-guidance-documents/single-dose-acute-toxicity-testing-pharmaceuticals) to obtain acute information on the dose toxicity of HU-MCA-13 in male mice. Male C57BL/6 mice were injected intravenously with 0.2 mL of HU-MCA-13 in a dose of 250 mg/kg. […] The mortality and changes on body weight, clinical signs and gross observation, were monitored up to 30 days after treatment.
Sensory motor/neurological performance
The performance was weekly measured using several routine motor tests, but no neurological losses w ere observed (Table 1). Sensory motor tests were scored individually and according to the neurologic function severity score (NSS). The data from each individual test and the total score calculated from individual tests that make up the mNSS were measured. The following tests were […]
a. Beam balance test -mice were placed on a 2.5 cm wide beam for 60 seconds. A normal response is balance with steady posture for 60 seconds (a score of 0). Deficits are scored if the rat:
1. Grasps the side of the beam (score of 1); 2. Hugs the beam and one limb falls down from the beam (score of 2); 3. Hugs the beam and two limbs fall off the beam (score of 3); 4. Try to balance on the beam, but falls off from 60 seconds (score of 4); 5. Try to balance on the beam but falls off from 60 seconds (score of 5); 6. Falls off with no attempt to balance or hang on the beam in les s than 20 seconds (score of 6). b. Foot fault test- dysfunction of forelimb movement, while walking on elevated metal grids.
The animal was placed on horizontal grids (85 ×26 ×20) cm with a glass enclosure for observation.
With each weight bearing step, the forelimb can fall or slip between the metal support bars, an event recorded as a foot fault. The total number of forelimb steps and the total number of foot faults were counted. The percentage of forelimb foot faults to the total steps that occurred within 2 minutes represent the test results. c. Hind limb placing test- This assay monitors reposition of hind limbs placed down and away from the table edge. The ability to retrieve and place the hind limbs back onto the table was measured. Immediate and complete limb retrieval was scored 0, delayed (>2 seconds) limb retrieval and/or interspersed flailing was scored 1, and no limb retrieval was scored 2; d. Increasing platform angle to slide test- This assay measures the strength and stability of resistance to slide down an inclined platform. It deploys a clean wooden board (60 X 40 cm) positioned horizontally. Mice were placed on the board with head facing up the increasing incline.
The board then swings to increase the degree of inclination the rat experiences until slipping down the board feet first. The degree of the angle at which the rat relinquishes their grip/stance on the board (slips down) represents the test results; […]
e. Forelimb whole body suspension test- This assay measure s grip strength by duration of suspen sion by forepaws. The rat is suspended o n a metal bar (diameter of 5 mm) which it tightly holds onto by its forelimbs. The time (seconds) during which each rat could sustain its body weight while holding onto the bar is measured. The mice drop from the bar onto soft material with no harm. The test was repeated three times and a mean result per rat was used as the score. […]

[6] = 10 μM, Blocker, Transporter, read-out: MCA-13 Max. Responce

T1 sequence (P08913 whole entry): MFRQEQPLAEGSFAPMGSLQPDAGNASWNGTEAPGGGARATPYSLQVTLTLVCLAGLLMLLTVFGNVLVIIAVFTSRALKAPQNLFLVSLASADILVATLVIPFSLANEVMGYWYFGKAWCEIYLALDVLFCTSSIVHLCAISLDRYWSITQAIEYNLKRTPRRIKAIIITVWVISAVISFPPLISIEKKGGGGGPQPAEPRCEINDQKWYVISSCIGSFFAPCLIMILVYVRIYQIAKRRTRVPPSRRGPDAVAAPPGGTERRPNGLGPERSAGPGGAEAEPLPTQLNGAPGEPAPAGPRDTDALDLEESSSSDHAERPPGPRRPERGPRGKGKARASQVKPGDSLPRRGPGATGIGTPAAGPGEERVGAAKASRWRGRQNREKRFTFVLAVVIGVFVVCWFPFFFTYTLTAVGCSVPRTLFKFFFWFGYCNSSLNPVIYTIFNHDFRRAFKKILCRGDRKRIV
T2 sequence (Q01959 whole entry): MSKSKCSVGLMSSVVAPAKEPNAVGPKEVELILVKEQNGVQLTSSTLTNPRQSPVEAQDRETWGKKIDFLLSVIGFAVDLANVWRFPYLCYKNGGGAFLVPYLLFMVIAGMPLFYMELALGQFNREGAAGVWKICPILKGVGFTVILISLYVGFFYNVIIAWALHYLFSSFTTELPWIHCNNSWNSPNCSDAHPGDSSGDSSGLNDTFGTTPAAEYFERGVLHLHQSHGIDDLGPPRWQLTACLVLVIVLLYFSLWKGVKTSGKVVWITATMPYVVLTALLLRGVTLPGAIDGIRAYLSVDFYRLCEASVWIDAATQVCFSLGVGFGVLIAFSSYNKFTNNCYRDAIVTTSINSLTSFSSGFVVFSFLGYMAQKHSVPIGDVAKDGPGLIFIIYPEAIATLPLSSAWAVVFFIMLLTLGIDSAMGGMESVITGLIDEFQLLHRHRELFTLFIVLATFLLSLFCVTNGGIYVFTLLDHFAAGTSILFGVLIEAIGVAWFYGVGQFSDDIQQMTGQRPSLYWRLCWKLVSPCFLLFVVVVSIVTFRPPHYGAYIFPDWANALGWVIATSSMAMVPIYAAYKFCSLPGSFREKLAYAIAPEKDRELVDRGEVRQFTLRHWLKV
T3 sequence (P23975 whole entry): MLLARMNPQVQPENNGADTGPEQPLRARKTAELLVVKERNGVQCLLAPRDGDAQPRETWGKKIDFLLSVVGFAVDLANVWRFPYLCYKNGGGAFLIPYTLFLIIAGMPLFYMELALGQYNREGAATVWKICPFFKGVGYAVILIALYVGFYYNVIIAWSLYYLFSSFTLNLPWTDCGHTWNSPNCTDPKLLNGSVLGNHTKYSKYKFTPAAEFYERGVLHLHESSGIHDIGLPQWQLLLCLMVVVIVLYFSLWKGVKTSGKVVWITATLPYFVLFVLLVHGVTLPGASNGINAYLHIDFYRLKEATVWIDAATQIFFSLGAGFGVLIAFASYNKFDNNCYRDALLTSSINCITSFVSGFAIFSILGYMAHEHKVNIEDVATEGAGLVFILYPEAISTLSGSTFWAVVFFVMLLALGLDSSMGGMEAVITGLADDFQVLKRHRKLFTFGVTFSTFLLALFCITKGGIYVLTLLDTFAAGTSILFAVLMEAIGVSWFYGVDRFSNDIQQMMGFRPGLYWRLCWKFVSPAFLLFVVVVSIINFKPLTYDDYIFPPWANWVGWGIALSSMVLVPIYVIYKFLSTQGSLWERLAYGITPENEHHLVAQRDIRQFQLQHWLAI
T4 sequence (P31645 whole entry): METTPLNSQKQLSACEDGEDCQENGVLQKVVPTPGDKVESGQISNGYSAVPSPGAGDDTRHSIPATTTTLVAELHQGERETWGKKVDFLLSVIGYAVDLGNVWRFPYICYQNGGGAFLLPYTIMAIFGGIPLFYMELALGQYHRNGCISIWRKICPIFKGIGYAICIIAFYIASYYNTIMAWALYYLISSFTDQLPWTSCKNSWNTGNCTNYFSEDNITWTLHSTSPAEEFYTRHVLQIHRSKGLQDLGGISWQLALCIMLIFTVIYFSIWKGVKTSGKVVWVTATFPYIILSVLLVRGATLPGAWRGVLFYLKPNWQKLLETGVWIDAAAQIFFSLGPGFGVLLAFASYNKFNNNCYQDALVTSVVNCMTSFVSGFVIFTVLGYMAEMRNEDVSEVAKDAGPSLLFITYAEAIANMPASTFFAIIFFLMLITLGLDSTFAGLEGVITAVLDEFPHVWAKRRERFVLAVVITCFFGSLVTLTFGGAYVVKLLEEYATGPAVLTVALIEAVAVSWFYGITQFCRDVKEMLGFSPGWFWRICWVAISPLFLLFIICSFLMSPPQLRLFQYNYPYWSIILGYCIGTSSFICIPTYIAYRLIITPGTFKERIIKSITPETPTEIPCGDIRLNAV

Question: For `C=CCC1CCCC(CCC(=O)O)C1=C` (stereo not shown) [HU-MCA-13, 3-(3-allyl-2-methylenecyclohexyl)propanoic acid], which EC50 [1] is on record?
Answer: The EC50 was over 10 µM.

Question: And the IC50 [1]?
Answer: Its IC50 is over 10 µM.

Question: And the IC50 [2]?
Answer: Its IC50 is over 10 µM.

Question: What about the inhibition at 10 µM [2, 6] of the same molecule?
Answer: Its inhibition at 10 µM is 0%.

Question: What about the IC50 [3] of the same molecule?
Answer: Its IC50 is over 10 µM.

Question: What about the inhibition at 10 µM [3, 6] of the same molecule?
Answer: Its inhibition at 10 µM is 3.53%.

Question: What about the inhibition at 10 µM ([4]; 10 μM, read-out: MCA-13 Max. Responce) of the same molecule?
Answer: Its inhibition at 10 µM is 15.4%.

Question: What about the IC50 ([4]; read-out: RC50 (the source's name)) of the same molecule?
Answer: The IC50 was over 10 µM.

Question: What about the “autonomic symptoms (salivation, urinary delivery, pupillary constriction, hair contraction) versus DMSO” value [5] of the same molecule?
Answer: The value was “no differences were observed”.

Question: What about the mortality ([5]; single dose, monitored up to 30 days) of the same molecule?
Answer: The mortality was “could not find any mortality”.

Question: And the “sensory-motor performance, neurologic function severity score (NSS)” value ([5]; first week after injection)?
Answer: Its value is “no neurological losses were observed”.

Question: What about the “changes on body weight versus 1% DMSO treated group” value ([5]; up to 30 days) of the same molecule?
Answer: The value was “No significant changes”.

Question: What about the “body weight at end” value ([5]; up to 30 days, started with 21 g) of the same molecule?
Answer: Its value is 27 g.
